Values after ≈ are worked out from the molar mass of the structure shown. Active and inactive are the calls of the source. The calls are words filed in the database; no cut-off is given here.
Legend:
[1] = tested on: Staphylococcus aureus; experiment: Antibacterial activity against Staphylococcus aureus MTCC 96 by NCCLS broth macrodilution method; assay type: functional
[2] = tested on: Bacillus subtilis; experiment: Antibacterial activity against Bacillus subtilis MTCC 121 by NCCLS broth macrodilution method; assay type: functional
[3] = tested on: Escherichia coli; experiment: Antibacterial activity against Escherichia coli MTCC 1652 at 4 mg/ml after 24 hr by agar well diffusion method; assay type: functional, organism-based
[4] = tested on: Rattus norvegicus; experiment: Anti-inflammatory activity in Rattus norvegicus Wistar albino (rat) assessed as inhibition of carrageenan-induced paw edema at 50 mg/kg, po administered for 30 min prior to carrageenan challenge measured at 2 hr relative to control; assay type: functional
[5] = tested on: Rattus norvegicus; experiment: Anti-inflammatory activity in Rattus norvegicus Wistar albino (rat) assessed as inhibition of carrageenan-induced paw edema at 50 mg/kg, po administered for 30 min prior to carrageenan challenge measured at 3 hr relative to control; assay type: functional
[6] = tested on: Staphylococcus aureus; experiment: Antibacterial activity against Staphylococcus aureus MTCC 96 at 4 mg/ml after 24 hr by agar well diffusion method; assay type: functional; conditions: MTCC 96, 24 h, read-out: DIZ
[7] = tested on: Bacillus subtilis; experiment: Antibacterial activity against Bacillus subtilis MTCC 121 at 4 mg/ml after 24 hr by agar well diffusion method; assay type: functional; conditions: MTCC 121, 24 h, read-out: DIZ
[8] = tested on: Rattus norvegicus; experiment: Anti-inflammatory activity in Rattus norvegicus Wistar albino (rat) assessed as inhibition of carrageenan-induced paw edema at 50 mg/kg, po administered for 30 min prior to carrageenan challenge measured at 1 hr relative to control; assay type: functional
[9] = tested on: Rattus norvegicus; experiment: Anti-inflammatory activity in Rattus norvegicus Wistar albino (rat) assessed as inhibition of carrageenan-induced paw edema at 50 mg/kg, po administered for 30 min prior to carrageenan challenge measured at 4 hr relative to control; assay type: functional
[10] = tested on: Pseudomonas aeruginosa; conditions: MTCC 741, 4 mg/ml
Description: Antibacterial activity against Pseudomonas aeruginosa MTCC 741 at 4 mg/ml after 24 hr by agar well diffusion method

Structure (SMILES)	MIC [1]	MIC [2]	diameter of the inhibition zone (DIZ) [3]	inhibition in vivo at 50 mg/kg [4]	inhibition in vivo at 50 mg/kg [5]	zone of inhibition at 4000 µg/mL [6]	zone of inhibition at 4000 µg/mL [7]	inhibition in vivo at 50 mg/kg [8]	inhibition in vivo at 50 mg/kg [9]	DIZ [10]
NC(=S)N/N=C/c1cn(-c2ccc(S(N)(=O)=O)cc2)nc1-c1ccc(Cl)cc1	> 128 µg/mL	> 128 µg/mL	inactive	76%	77%	14 mm	13.6 mm	33%	71%	inactive
Cc1ccc(-c2csc(N/N=C/c3cn(-c4ccc(S(N)(=O)=O)cc4)nc3-c3ccc(C)cc3)n2)cc1	> 128 µg/mL	> 128 µg/mL	inactive	72%	75%	13.6 mm	14 mm	24%	61%	inactive
Cc1ccc(-c2nn(-c3ccc(S(N)(=O)=O)cc3)cc2/C=N/NC(N)=S)cc1	> 128 µg/mL	> 128 µg/mL	inactive	72%	75%	16.3 mm	14.3 mm	32%	70%	inactive
Cc1ccc(-c2nn(-c3ccc(S(N)(=O)=O)cc3)cc2/C=N/Nc2nc(-c3ccc(Cl)cc3)cs2)cc1	> 128 µg/mL	> 128 µg/mL	inactive	60%	60%	14.6 mm	15.3 mm	32%	57%	inactive
NC(=S)N/N=C/c1cn(-c2ccc(S(N)(=O)=O)cc2)nc1-c1ccc(F)cc1	> 128 µg/mL	> 128 µg/mL	inactive	75%	73%	15.6 mm	15.3 mm	24%	75%	inactive
Cc1ccc(-c2csc(N/N=C/c3cn(-c4ccc(S(N)(=O)=O)cc4)nc3-c3ccc(Cl)cc3)n2)cc1	> 128 µg/mL	> 128 µg/mL	inactive	61%	70%	15.3 mm	14.6 mm	5%	73%	inactive
Cc1ccc(-c2csc(N/N=C/c3cn(-c4ccc(S(N)(=O)=O)cc4)nc3-c3ccccc3)n2)cc1	> 128 µg/mL	> 128 µg/mL	inactive	65%	57%	15 mm	14.6 mm	28%	60%	inactive
NS(=O)(=O)c1ccc(-n2cc(/C=N/Nc3nc(-c4ccccc4)cs3)c(-c3ccc(Cl)cc3)n2)cc1	> 128 µg/mL	> 128 µg/mL	inactive	62%	57%	13.3 mm	15.6 mm	22%	56%	inactive
NS(=O)(=O)c1ccc(-n2cc(/C=N/Nc3nc(-c4ccccc4)cs3)c(-c3ccccc3)n2)cc1	> 128 µg/mL	> 128 µg/mL	inactive	71%	69%	14.3 mm	14.6 mm	33%	72%	inactive
NC(=S)N/N=C/c1cn(-c2ccc(S(N)(=O)=O)cc2)nc1-c1ccccc1	128 µg/mL (≈ 320 µM)	64 µg/mL (≈ 160 µM)	inactive	59%	67%	17 mm	19.6 mm	35%	63%	inactive
Cc1ccc(-c2nn(-c3ccc(S(N)(=O)=O)cc3)cc2/C=N/Nc2nc(-c3ccccc3)cs2)cc1	> 128 µg/mL	> 128 µg/mL	inactive	60%	75%	15.3 mm	13.6 mm	33%	56%	inactive
NS(=O)(=O)c1ccc(-n2cc(/C=N/Nc3nc(-c4ccc(Cl)cc4)cs3)c(-c3ccc(Cl)cc3)n2)cc1	> 128 µg/mL	> 128 µg/mL	inactive	67%	73%	14.6 mm	15 mm	28%	58%	inactive
NS(=O)(=O)c1ccc(-n2cc(/C=N/Nc3nc(-c4ccccc4)cs3)c(-c3ccc(F)cc3)n2)cc1	> 128 µg/mL	> 128 µg/mL	inactive	60%	65%	14.6 mm	16.6 mm	11%	56%	inactive
NS(=O)(=O)c1ccc(-n2cc(/C=N/Nc3nc(-c4ccc(Cl)cc4)cs3)c(-c3ccc(F)cc3)n2)cc1	> 128 µg/mL	> 128 µg/mL	inactive	29%	73%	14.3 mm	13.3 mm	35%	75%	inactive
Cc1ccc(-c2csc(N/N=C/c3cn(-c4ccc(S(N)(=O)=O)cc4)nc3-c3ccc(F)cc3)n2)cc1	> 128 µg/mL	> 128 µg/mL	inactive	72%	73%	15.6 mm	14.3 mm	33%	70%	inactive
COc1ccc(-c2nn(-c3ccc(S(N)(=O)=O)cc3)cc2/C=N/NC(N)=S)cc1	> 128 µg/mL	> 128 µg/mL	inactive	76%	59%	13.6 mm	15 mm	28%	71%	inactive
COc1ccc(-c2nn(-c3ccc(S(N)(=O)=O)cc3)cc2/C=N/Nc2nc(-c3ccccc3)cs2)cc1	> 128 µg/mL	> 128 µg/mL	inactive	65%	61%	15.3 mm	15.6 mm	32%	61%	inactive
NS(=O)(=O)c1ccc(-n2cc(/C=N/Nc3nc(-c4ccc(Cl)cc4)cs3)c(-c3ccccc3)n2)cc1	> 128 µg/mL	> 128 µg/mL	inactive	72%	75%	13.6 mm	15.3 mm	32%	70%	inactive
COc1ccc(-c2nn(-c3ccc(S(N)(=O)=O)cc3)cc2/C=N/Nc2nc(-c3ccc(Cl)cc3)cs2)cc1	> 128 µg/mL	> 128 µg/mL	inactive	66%	69%	13.6 mm	14.3 mm	32%	71%	inactive
COc1ccc(-c2nn(-c3ccc(S(N)(=O)=O)cc3)cc2/C=N/Nc2nc(-c3ccc(C)cc3)cs2)cc1	64 µg/mL (≈ 118 µM)	128 µg/mL (≈ 235 µM)	inactive	65%	72%	20.6 mm	17.3 mm	37%	70%	inactive
